Key:
late watergrass = experiment: Test Example 1: herbicidal activity, application before weed generation under submerged conditions (Table 16, symbol A); type: in vivo, late watergrass (Echinochloa oryzicola); details: 320 g/ha applied herbicide
Procedure, shortened: (§1)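 Emulsion formulation, water-diluted to set dose, was put onto the flooded surface (4 cm depth, alluvial soil) the same day weeds were sown and 2.5-leaf rice transplanted. After 3 weeks at 25-30 °C under glass, each species was rated 0 (≤5% kill) to 5 (≥90% kill).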

Japanese bulrush = experiment: Test Example 1: herbicidal activity, application before weed generation under submerged conditions (Table 16, symbol B); type: in vivo, Japanese bulrush (Schoenoplectus juncoides); details: 320 g/ha applied herbicide
Procedure, shortened: as §1

oval-leafed pondweed = experiment: Test Example 1: herbicidal activity, application before weed generation under submerged conditions (Table 16, symbol C); type: in vivo, oval-leafed pondweed (Monochoria vaginalis); details: 320 g/ha applied herbicide
Procedure, shortened: as §1

barnyard grass [1] = experiment: Test Example 3: herbicidal effect by foliage application, Wagner pot (Table 18, symbol H); type: in vivo, barnyard grass (Echinochloa crus-galli); details: 320 g/ha
Procedure, shortened: (§2)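 Plants were sown in alluvial soil held under 0.1–0.5 cm standing water and grown 14 days in a greenhouse at 25–30 °C. An emulsifiable formulation, water-diluted to the set dose, was then sprayed onto the foliage, and effects were scored three weeks later using previously defined criteria.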

Chinese sprangletop = experiment: Test Example 3: herbicidal effect by foliage application, Wagner pot (Table 18, symbol D); type: in vivo, chinese sprangletop (Leptochloa chinensis); details: 320 g/ha
Procedure, shortened: as §2

rice flat sedge = experiment: Test Example 3: herbicidal effect by foliage application, Wagner pot (Table 18, symbol E); type: in vivo, rice flat sedge (Cyperus iria); details: 320 g/ha
Procedure, shortened: as §2

southern crabgrass [2] = experiment: Test Example 4: herbicidal effect by soil treatment (Table 19, symbol F); type: in vivo, southern crabgrass (Digitaria ciliaris); details: amount of applied herbicide 320 g/ha
Procedure, shortened: (§3)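 Seeds were sown in sterilized diluvial soil and covered with about 1.5 cm of soil. An emulsion formulation diluted with water to a predetermined herbicide amount was sprayed evenly onto the soil surface. Plants grew in a greenhouse at 25° C. to 30° C., and the effect was scored three weeks after application using criteria from an earlier test.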

green foxtail [3] = experiment: Test Example 4: herbicidal effect by soil treatment (Table 19, symbol G); type: in vivo, green foxtail (Setaria viridis); details: amount of applied herbicide 320 g/ha
Procedure, shortened: as §3

barnyard grass [4] = experiment: Test Example 4: herbicidal effect by soil treatment (Table 19, symbol H); type: in vivo, barnyard grass (Echinochloa crus-galli); details: amount of applied herbicide 320 g/ha
Procedure, shortened: as §3

wild oat [5] = experiment: Test Example 4: herbicidal effect by soil treatment (Table 19, symbol I); type: in vivo, wild oat (Avena fatua); details: amount of applied herbicide 320 g/ha
Procedure, shortened: as §3

blackgrass [6] = experiment: Test Example 4: herbicidal effect by soil treatment (Table 19, symbol J); type: in vivo, blackgrass (Alopecurus myosuroides); details: amount of applied herbicide 320 g/ha
Procedure, shortened: as §3

Italian ryegrass [7] = experiment: Test Example 4: herbicidal effect by soil treatment (Table 19, symbol K); type: in vivo, Italian ryegrass (Lolium multiflorum); details: amount of applied herbicide 320 g/ha
Procedure, shortened: as §3

windgrass [8] = experiment: Test Example 4: herbicidal effect by soil treatment (Table 19, symbol L); type: in vivo, windgrass (Apera spica-venti); details: amount of applied herbicide 320 g/ha
Procedure, shortened: as §3

velvetleaf [9] = experiment: Test Example 4: herbicidal effect by soil treatment (Table 19, symbol M); type: in vivo, velvetleaf (Abutilon theophrasti); details: amount of applied herbicide 320 g/ha
Procedure, shortened: as §3

redroot pigweed [10] = experiment: Test Example 4: herbicidal effect by soil treatment (Table 19, symbol N); type: in vivo, redroot pigweed (Amaranthus retroflexus); details: amount of applied herbicide 320 g/ha
Procedure, shortened: as §3

lambsquarters [11] = experiment: Test Example 4: herbicidal effect by soil treatment (Table 19, symbol O); type: in vivo, lambsquarters (Chenopodium album); details: amount of applied herbicide 320 g/ha
Procedure, shortened: as §3

chickweed [12] = experiment: Test Example 4: herbicidal effect by soil treatment (Table 19, symbol P); type: in vivo, common chickweed (Stellaria media); details: amount of applied herbicide 320 g/ha
Procedure, shortened: as §3

false cleavers = experiment: Test Example 4: herbicidal effect by soil treatment (Table 19, symbol Q); type: in vivo, false cleavers (Galium spurium); details: amount of applied herbicide 320 g/ha
Procedure, shortened: as §3

persian speedwell [13] = experiment: Test Example 4: herbicidal effect by soil treatment (Table 19, symbol R); type: in vivo, Persian speedwell (Veronica persica); details: amount of applied herbicide 320 g/ha
Procedure, shortened: as §3

southern crabgrass [14] = experiment: Test Example 5: herbicidal effect by foliage application, plastic box (Table 20, symbol F); type: in vivo, southern crabgrass (Digitaria ciliaris); details: foliage application, 320 g/ha, three weeks after application
Procedure, shortened: (§4)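 Plants sown in sterilized diluvial soil and grown 14 days in a greenhouse at 25° C to 30° C, then sprayed on the foliage with the compound's emulsion diluted in water to a predetermined herbicide amount. Injury to weeds and crops scored three weeks after application on a visual rating scale.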

green foxtail [15] = experiment: Test Example 5: herbicidal effect by foliage application, plastic box (Table 20, symbol G); type: in vivo, green foxtail (Setaria viridis); details: foliage application, 320 g/ha, three weeks after application
Procedure, shortened: as §4

barnyard grass [16] = experiment: Test Example 5: herbicidal effect by foliage application, plastic box (Table 20, symbol H); type: in vivo, barnyard grass (Echinochloa crus-galli); details: foliage application, 320 g/ha, three weeks after application
Procedure, shortened: as §4

wild oat [17] = experiment: Test Example 5: herbicidal effect by foliage application, plastic box (Table 20, symbol I); type: in vivo, wild oat (Avena fatua); details: foliage application, 320 g/ha, three weeks after application
Procedure, shortened: as §4

blackgrass [18] = experiment: Test Example 5: herbicidal effect by foliage application, plastic box (Table 20, symbol J); type: in vivo, blackgrass (Alopecurus myosuroides); details: foliage application, 320 g/ha, three weeks after application
Procedure, shortened: as §4

Italian ryegrass [19] = experiment: Test Example 5: herbicidal effect by foliage application, plastic box (Table 20, symbol K); type: in vivo, Italian ryegrass (Lolium multiflorum); details: foliage application, 320 g/ha, three weeks after application
Procedure, shortened: as §4

windgrass [20] = experiment: Test Example 5: herbicidal effect by foliage application, plastic box (Table 20, symbol L); type: in vivo, windgrass (Apera spica-venti); details: foliage application, 320 g/ha, three weeks after application
Procedure, shortened: as §4

velvetleaf [21] = experiment: Test Example 5: herbicidal effect by foliage application, plastic box (Table 20, symbol M); type: in vivo, velvetleaf (Abutilon theophrasti); details: foliage application, 320 g/ha, three weeks after application
Procedure, shortened: as §4

redroot pigweed [22] = experiment: Test Example 5: herbicidal effect by foliage application, plastic box (Table 20, symbol N); type: in vivo, redroot pigweed (Amaranthus retroflexus); details: foliage application, 320 g/ha, three weeks after application
Procedure, shortened: as §4

lambsquarters [23] = experiment: Test Example 5: herbicidal effect by foliage application, plastic box (Table 20, symbol O); type: in vivo, lambsquarters (Chenopodium album); details: foliage application, 320 g/ha, three weeks after application
Procedure, shortened: as §4

chickweed [24] = experiment: Test Example 5: herbicidal effect by foliage application, plastic box (Table 20, symbol P); type: in vivo, common chickweed (Stellaria media); details: foliage application, 320 g/ha, three weeks after application
Procedure, shortened: as §4

persian speedwell [25] = experiment: Test Example 5: herbicidal effect by foliage application, plastic box (Table 20, symbol R); type: in vivo, Persian speedwell (Veronica persica); details: foliage application, 320 g/ha, three weeks after application
Procedure, shortened: as §4

With `CCCC(=O)Oc1c(C)nn(C)c(=O)c1-c1c(-c2ccc(F)c(C)c2)sc2ccccc12` [1-052] the “Herbicidal effect on A: late watergrass (grade 0-5)” value (late watergrass) was 3 (Herbicidal rate of 40% or more and less than 70%), the “Herbicidal effect on B: Japanese bulrush (grade 0-5)” value (Japanese bulrush) was 1 (Herbicidal rate of 5% or more and less than 20%) and the “Herbicidal effect on C: oval-leafed pondweed (grade 0-5)” value (oval-leafed pondweed) was 3 (Herbicidal rate of 40% or more and less than 70%). The “herbicidal effect on H (barnyard grass), rating 0-5” value (barnyard grass [1]) was 3 (Herbicidal rate of 40% or more and less than 70%), the “herbicidal effect on D (Chinese sprangletop), rating 0-5” value (Chinese sprangletop) was 2 (Herbicidal rate of 20% or more and less than 40%) and the “herbicidal effect on E (rice flat sedge), rating 0-5” value (rice flat sedge) was 5 (Herbicidal rate of 90% or more (almost completely withered)). For the same compound, the “herbicidal effect rating, F: southern crabgrass” value (southern crabgrass [2]) was 1 (Herbicidal rate of 5% or more and less than 20%), the “herbicidal effect rating, G: green foxtail” value (green foxtail [3]) was 4 (Herbicidal rate of 70% or more and less than 90%) and the “herbicidal effect rating, H: barnyard grass” value (barnyard grass [4]) was 3 (Herbicidal rate of 40% or more and less than 70%). The “herbicidal effect rating, I: wild oat” value (wild oat [5]) was 0 (Herbicidal rate of 5% or less (almost no effect)), the “herbicidal effect rating, J: blackgrass” value (blackgrass [6]) was 0 (Herbicidal rate of 5% or less (almost no effect)) and the “herbicidal effect rating, K: Italian ryegrass” value (Italian ryegrass [7]) was 1 (Herbicidal rate of 5% or more and less than 20%). The “herbicidal effect rating, L: windgrass” value (windgrass [8]) was 0 (Herbicidal rate of 5% or less (almost no effect)), the “herbicidal effect rating, M: velvetleaf” value (velvetleaf [9]) was 0 (Herbicidal rate of 5% or less (almost no effect)) and the “herbicidal effect rating, N: redroot pigweed” value (redroot pigweed [10]) was 0 (Herbicidal rate of 5% or less (almost no effect)). The “herbicidal effect rating, O: lambsquarters” value (lambsquarters [11]) was 2 (Herbicidal rate of 20% or more and less than 40%), the “herbicidal effect rating, P: chickweed” value (chickweed [12]) was 4 (Herbicidal rate of 70% or more and less than 90%) and the “herbicidal effect rating, Q: false cleavers” value (false cleavers) was 0 (Herbicidal rate of 5% or less (almost no effect)). The “herbicidal effect rating, R: persian speedwell” value (persian speedwell [13]) was 3 (Herbicidal rate of 40% or more and less than 70%), the “herbicidal effect grade, F: southern crabgrass” value (southern crabgrass [14]) was 2 (Herbicidal rate of 20% or more and less than 40%) and the “herbicidal effect grade, G: green foxtail” value (green foxtail [15]) was 5 (Herbicidal rate of 90% or more (almost completely withered)). For the same compound, the “herbicidal effect grade, H: barnyard grass” value (barnyard grass [16]) was 3 (Herbicidal rate of 40% or more and less than 70%), the “herbicidal effect grade, I: wild oat” value (wild oat [17]) was 0 (Herbicidal rate of 5% or less (almost no effect)) and the “herbicidal effect grade, J: blackgrass” value (blackgrass [18]) was 0 (Herbicidal rate of 5% or less (almost no effect)). For the same compound, the “herbicidal effect grade, K: Italian ryegrass” value (Italian ryegrass [19]) was 0 (Herbicidal rate of 5% or less (almost no effect)), the “herbicidal effect grade, L: windgrass” value (windgrass [20]) was 0 (Herbicidal rate of 5% or less (almost no effect)) and the “herbicidal effect grade, M: velvetleaf” value (velvetleaf [21]) was 5 (Herbicidal rate of 90% or more (almost completely withered)). For the same compound, the “herbicidal effect grade, N: redroot pigweed” value (redroot pigweed [22]) was 3 (Herbicidal rate of 40% or more and less than 70%), the “herbicidal effect grade, O: lambsquarters” value (lambsquarters [23]) was 3 (Herbicidal rate of 40% or more and less than 70%) and the “herbicidal effect grade, P: chickweed” value (chickweed [24]) was 5 (Herbicidal rate of 90% or more (almost completely withered)). The “herbicidal effect grade, R: persian speedwell” value (persian speedwell [25]) was 1 (Herbicidal rate of 5% or more and less than 20%).
